Values quoted from earlier work as cited in patent US20220273590A1, “COMPOUNDS FOR PREVENTION AND TREATMENT OF POST-OPERATIVE COGNITIVE DYSFUNCTION” (ABREXA PHARMACEUTICALS, INC., priority 2019, published 2022).

Settings: cited from earlier work

Q: With Cc1cccc([C@H](C)c2cnc[nH]2)c1C [Dexmedetomidine] as the molecule, how does the “efficacy for POCD” value (Skvarc et al. (2018)) read?
A: failed to show efficacy

Q: With CCN(C)C(=O)Oc1cccc([C@H](C)N(C)C)c1 [Rivastigmine] as the molecule, how does the “efficacy for the treatment of POCD” value (clinical investigation NCT00835159, at termination) read?
A: no efficacy was observed

Q: And the “safety in the treatment of POCD” value (seriously ill patients after surgery, clinical investigation NCT00835159 terminated)?
A: too dangerous

Q: With [Mg+2] [Magnesium] as the molecule, how does the “reduction of POCD” value (administered intravenously during cardiac surgery, clinical trial NCT00041392) read?
A: failed to reduce POCD
